Where “and” joins values, the source holds several entries; their conditions need not be identical. Identical values can stand only once. Counter-ions that a name gives are not always drawn. Like-named read-outs stand apart in the source and are kept apart here.

Series [1] relates to rat intestine (proximal jejunum and distal ileum). Put plainly: In situ single-pass intestinal perfusion. The class given is in vivo. Conditions: physiological vs alternate pH, HDS, n = 6.
In another series the test system is P-gp. Conditions: cited from earlier work.
Series [2] in a line: Transport studies across Caco-2 cell monolayers. Conditions: human. A general note: Caco-2 monolayers are a common model of the intestinal barrier.
The subject of series [3] is Caco-2 cell monolayers. Put plainly: Transport studies across Caco-2 cell monolayers.
For a further series, the system named is Caco-2 cells. Conditions: Caco-2, initial concentration based on HDS in 250 ml water; cited from earlier work.
Another series can be described thus: pKa. The class given is physicochemical.
Series [4] concerns Caco-2 cell monolayers. Conditions: human, Caco-2, pH 7.5.
The conditions of series [5]: cited from earlier work.
In the next series the test system is rat small intestine. Conditions: cited from earlier work.

By Papp is commonly meant a coefficient for how fast a substance crosses the barrier. A low value points to slow passage. As for `COCCc1ccc(OCC(O)CNC(C)C)cc1` (stereo not drawn) [Metoprolol], the “Effect of change of pH (6.5 vs 7.5) on permeability in jejunum and ileum” value in series [1] was “did not significantly affect”. Besides, in the series on P-gp, the “Interaction with P-gp” value is “does not interact with P-gp”. For the same compound, the Papp at 120 min is 9.44 ± 3.44 ×10⁻⁶ cm/s in series [2] (Caco-2, pH 6.5) and 23.2 ± 7.1 ×10⁻⁶ cm/s in series [2] (Caco-2, pH 7.5). Moreover, the “Effect of verapamil on permeability in AP-BL and BL-AP directions” value with Caco-2 cell monolayers [3] (0.1 mM verapamil, 0.1 times HDS (40 μg/ml), AP pH 7.5) was “no effect”. Moreover, the “Increase of ER under AP pH 6.5” value in the series with Caco-2 cell monolayers [3] (AP pH 6.5 compared with AP pH 7.5) is recorded as 3.6 times.

Take `CCn1cc(C(=O)O)c(=O)c2cc(F)c(N3CCNC(C)C3)c(F)c21` (stereo not drawn) [lemofloxacin, lomefloxacin]: the “Permeability classification based on comparison to labetalol” value in the series with Caco-2 cells was “high permeability”.

Usually Papp A→B stands for how fast a substance crosses the layer from the apical side. Higher therefore signals fast passage. For orientation: Papp B→A means the apparent permeability from the basolateral to the apical side of a cell layer. On to `CC(CCc1ccccc1)NCC(O)c1ccc(O)c(C(N)=O)c1` (stereo not drawn) [Labetalol], for which the “Effect of change of pH (6.5 vs 7.5) on permeability in jejunum and ileum” value in series [1] was “did not significantly affect”. In addition, the “Isoelectric point (maximum unionized fraction)” value in the series “pKa” was 8.4 pH. For the same compound, the “Increase in AP-BL direction transport caused by verapamil” value in the series with Caco-2 cell monolayers [4] is given as 1.5 times. For the same compound, the “Time to reach maximum plasma concentration (tmax)” value in [5] (100 mg oral dose, healthy volunteers) is 48 min. Also, the “Systemic BA (mean)” value in series [5] (hypertensive subjects) was 33%. Also, in [5] (man), the “Dose excreted in the urine as unchanged drug” value was “up to 5%”. For the same compound, the “Orally administered dose of radioactivity excreted by urine” value in series [5] (within 24 h, two subjects, 200 mg oral dose) is 55% and 60%. Moreover, the “Increase in apparent absorption rate constant of labetalol produced by verapamil” value in the series on rat small intestine (highest labetalol concentration (100)) was “about 53%”. Besides, in the series on rat small intestine (lowest labetalol concentration (10)), the “Increase in apparent absorption rate constant of labetalol produced by verapamil” value was “about 84%”. The compound also displayed a Papp at 120 min in series [2] (Caco-2, pH 6.5) of 5.96 ± 1.96 ×10⁻⁶ cm/s. In [2] (Caco-2, pH 7.5), this compound had a Papp A→B at 120 min, 120 μg/ml of 14.2 ± 1.5 ×10⁻⁶ cm/s; a Papp B→A at 120 min, 120 μg/ml of 46.7 ± 6.5 ×10⁻⁶ cm/s; an apparent permeability coefficient (Papp) at 120 min of 15.9 ± 2.2 ×10⁻⁶ cm/s.

For `CC(CCc1ccccc1)NCC(O)c1ccc(O)c(C(N)=O)c1` (stereo not drawn) [labetalol hydrochloride], in [5] (FDA product information of Trandate), the “Absorption from the GI tract” value is “completely absorbed”.

The record behind these values is article PMC3605724 (Molecular pharmaceutics, 2013).
